Source: the supplement of paper PMC6045584
± gives the standard deviation of the averaged measurements.

Assays:
[1] = compound: Cn1c(=O)n(-c2ccc(C(C)(C)C#N)cc2)c2c3cc(-c4cnc5ccccc5c4)ccc3ncc21 [BEZ-235]; test: surviving fraction relative to DMSO-only wells; higher = less growth inhibition; details: exposure time: 5 days
How it was run: (§1)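 Surviving fraction is CellTiter-Glo luminescence divided by the median of wells given DMSO only. For this, log-phase tumour cell lines went into 384-well plates at 250–500 cells per well and, 24 hours later, into five days of continuous inhibitor exposure at 0.5, 1, 5, 10, 50, 100, 500 and 1000 nM. Lines were screened three times and retained only if replicate Pearson r >0.7 and median Z' >0.3.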

[2] = compound: Cn1ncnc1[C@H]1c2n[nH]c(=O)c3cc(F)cc(c23)N[C@@H]1c1ccc(F)cc1 [BMN-673]; test: as above; details: exposure time: 5 days
How it was run: as §1

| Test System | surviving fraction ([1]; 0.5 nM) | surviving fraction ([1]; 1 nM) | surviving fraction ([1]; 5 nM) | surviving fraction ([1]; 10 nM) | surviving fraction ([1]; 50 nM) | surviving fraction ([1]; 100 nM) | surviving fraction ([1]; 500 nM) | surviving fraction ([1]; 1000 nM) | surviving fraction ([2]; 0.5 nM) | surviving fraction ([2]; 1 nM) | surviving fraction ([2]; 5 nM) | surviving fraction ([2]; 10 nM) | surviving fraction ([2]; 50 nM) | surviving fraction ([2]; 100 nM) | surviving fraction ([2]; 500 nM) | surviving fraction ([2]; 1000 nM) |
| --- | --- | --- | --- | --- | --- | --- | --- | --- | --- | --- | --- | --- | --- | --- | --- | --- |
| MDAMB436 BREAST | 0.94 ± 0.084 | 0.898 ± 0.085 | 0.876 ± 0.078 | 0.852 ± 0.088 | 0.545 ± 0.016 | 0.51 ± 0.047 | 0.392 ± 0.022 | 0.356 ± 0.013 | 0.734 ± 0.039 | 0.66 ± 0.056 | 0.481 ± 0.023 | 0.434 ± 0.031 | 0.413 ± 0.032 | 0.369 ± 0.026 | 0.349 ± 0.032 | 0.332 ± 0.02 |
| MDAMB453 BREAST | 1.05 ± 0.066 | 1.05 ± 0.022 | 1.09 ± 0.015 | 1.05 ± 0.057 | 0.574 ± 0.046 | 0.359 ± 0.025 | 0.197 ± 0.011 | 0.169 ± 0.012 | 1.1 ± 0.11 | 1.03 ± 0.054 | 1.12 ± 0.13 | 0.881 ± 0.057 | 0.724 ± 0.056 | 0.57 ± 0.029 | 0.454 ± 0.019 | 0.495 ± 0.044 |
| MDAMB468 BREAST | 1.08 ± 0.038 | 1.11 ± 0.015 | 1.07 ± 0.06 | 1.13 ± 0.018 | 1.06 ± 0.093 | 0.885 ± 0.05 | 0.366 ± 0.03 | 0.247 ± 0.013 | 0.993 ± 0.083 | 0.914 ± 0.024 | 0.824 ± 0.1 | 0.728 ± 0.12 | 0.578 ± 0.039 | 0.451 ± 0.053 | 0.305 ± 0.033 | 0.243 ± 0.013 |
| MFM223 BREAST | 1.12 ± 0.069 | 1.13 ± 0.043 | 1.11 ± 0.06 | 1.15 ± 0.079 | 0.932 ± 0.071 | 0.588 ± 0.018 | 0.206 ± 0.018 | 0.179 ± 0.0092 | 1.25 ± 0.069 | 1.2 ± 0.073 | 1.07 ± 0.25 | 0.9232 ± 0.0025 | 0.805 ± 0.015 | 0.755 ± 0.047 | 0.734 ± 0.027 | 0.713 ± 0.072 |
| MG63 BONE | 1.04 ± 0.071 | 1.03 ± 0.027 | 1.06 ± 0.067 | 1.03 ± 0.052 | 0.582 ± 0.026 | 0.45 ± 0.024 | 0.17 ± 0.014 | 0.143 ± 0.011 | 1.03 ± 0.023 | 0.988 ± 0.026 | 0.989 ± 0.028 | 0.917 ± 0.017 | 0.646 ± 0.014 | 0.432 ± 0.039 | 0.285 ± 0.0053 | 0.193 ± 0.029 |
| MHM BONE | 1.01 ± 0.021 | 0.995 ± 0.02 | 1.025 ± 0.0021 | 1.036 ± 0.0079 | 0.991 ± 0.018 | 0.885 ± 0.028 | 0.427 ± 0.011 | 0.351 ± 0.016 | 1.03 ± 0.047 | 1 ± 0.035 | 1.01 ± 0.048 | 1.01 ± 0.051 | 0.997 ± 0.041 | 0.981 ± 0.0079 | 0.868 ± 0.017 | 0.782 ± 0.012 |
| NCIH441 LUNG | 1.16 ± 0.081 | 1.11 ± 0.1 | 1.1 ± 0.027 | 1.11 ± 0.11 | 1.21 ± 0.064 | 0.997 ± 0.1 | 0.527 ± 0.027 | 0.356 ± 0.061 | 1.11 ± 0.035 | 1.11 ± 0.081 | 1.01 ± 0.039 | 0.872 ± 0.037 | 0.78 ± 0.13 | 0.723 ± 0.1 | 0.584 ± 0.082 | 0.499 ± 0.083 |
| NOS1 BONE | 1.09 ± 0.1 | 1.08 ± 0.089 | 1.08 ± 0.085 | 1.08 ± 0.046 | 0.6 ± 0.036 | 0.49 ± 0.11 | 0.206 ± 0.024 | 0.166 ± 0.032 | 1.1 ± 0.058 | 0.953 ± 0.093 | 0.683 ± 0.026 | 0.66 ± 0.066 | 0.633 ± 0.085 | 0.564 ± 0.051 | 0.551 ± 0.042 | 0.552 ± 0.026 |
| NY BONE | 0.996 ± 0.023 | 0.987 ± 0.018 | 1.02 ± 0.048 | 1.01 ± 0.044 | 0.825 ± 0.04 | 0.769 ± 0.003 | 0.486 ± 0.022 | 0.464 ± 0.036 | 1.019 ± 0.0087 | 1.01 ± 0.025 | 1.01 ± 0.037 | 0.934 ± 0.056 | 0.928 ± 0.047 | 0.879 ± 0.033 | 0.501 ± 0.011 | 0.257 ± 0.014 |
| OS25HAL BONE | 0.995 ± 0.017 | 1.01 ± 0.035 | 0.974 ± 0.031 | 0.965 ± 0.025 | 0.94 ± 0.045 | 0.788 ± 0.04 | 0.25 ± 0.0061 | 0.196 ± 0.018 | 1.1 ± 0.034 | 1.01 ± 0.037 | 0.96 ± 0.063 | 0.994 ± 0.017 | 0.91 ± 0.06 | 0.812 ± 0.014 | 0.327 ± 0.02 | 0.178 ± 0.021 |
| OSHN BONE | 1.07 ± 0.033 | 1.09 ± 0.044 | 1.06 ± 0.029 | 1.08 ± 0.03 | 1.12 ± 0.013 | 1.12 ± 0.026 | 0.828 ± 0.02 | 0.623 ± 0.0072 | 1.08 ± 0.024 | 1.04 ± 0.016 | 0.996 ± 0.023 | 0.9107 ± 0.004 | 0.742 ± 0.011 | 0.573 ± 0.081 | 0.197 ± 0.012 | 0.145 ± 0.009 |
| PCI30 HEADNECK | 0.955 ± 0.089 | 1.07 ± 0.066 | 1.07 ± 0.063 | 1.07 ± 0.082 | 0.83 ± 0.15 | 0.549 ± 0.011 | 0.343 ± 0.014 | 0.29 ± 0.014 | 1.01 ± 0.071 | 1.04 ± 0.092 | 0.91 ± 0.063 | 0.737 ± 0.056 | 0.585 ± 0.025 | 0.495 ± 0.0052 | 1.04 ± 0.025 | 1.08 ± 0.069 |
| RDES SOFT TISSUE | 1.26 ± 0.072 | 1.18 ± 0.21 | 1.17 ± 0.094 | 1.24 ± 0.14 | 1.48 ± 0.18 | 1.14 ± 0.29 | 0.453 ± 0.089 | 0.2 ± 0.03 | 1.16 ± 0.1 | 1.38 ± 0.055 | 1.07 ± 0.022 | 1.09 ± 0.093 | 0.472 ± 0.077 | 0.137 ± 0.011 | 0.035 ± 0.001 | 0.0337 ± 0.0025 |
| S68 BREAST | 0.792 ± 0.081 | 1.01 ± 0.26 | 1.07 ± 0.13 | 1.06 ± 0.22 | 0.574 ± 0.13 | 0.273 ± 0.029 | 0.0663 ± 0.0023 | 0.0637 ± 0.0023 | 1.17 ± 0.16 | 0.724 ± 0.12 | 0.602 ± 0.18 | 0.533 ± 0.095 | 0.445 ± 0.17 | 0.378 ± 0.059 | 0.357 ± 0.032 | 0.271 ± 0.054 |
| SAOS2 BONE | 1.18 ± 0.055 | 1.12 ± 0.043 | 1.171 ± 0.01 | 1.23 ± 0.1 | 1.08 ± 0.045 | 0.874 ± 0.0098 | 0.433 ± 0.039 | 0.36 ± 0.014 | 1.05 ± 0.058 | 1 ± 0.029 | 0.999 ± 0.077 | 0.831 ± 0.069 | 0.675 ± 0.018 | 0.489 ± 0.047 | 0.285 ± 0.022 | 0.219 ± 0.047 |
| SCC003 HEADNECK | 1.06 ± 0.089 | 1.11 ± 0.036 | 1.08 ± 0.13 | 1.08 ± 0.11 | 0.776 ± 0.12 | 0.717 ± 0.093 | 0.366 ± 0.02 | 0.289 ± 0.04 | 1.06 ± 0.053 | 1.07 ± 0.035 | 1.04 ± 0.015 | 1.03 ± 0.044 | 0.913 ± 0.019 | 0.713 ± 0.059 | 0.588 ± 0.012 | 0.475 ± 0.066 |
| SCC36 HEADNECK | 1 ± 0.15 | 1.05 ± 0.043 | 1.12 ± 0.048 | 1.16 ± 0.074 | 1.11 ± 0.08 | 0.966 ± 0.08 | 0.497 ± 0.022 | 0.352 ± 0.015 | 1.13 ± 0.041 | 0.988 ± 0.087 | 0.95 ± 0.15 | 0.886 ± 0.025 | 0.77 ± 0.089 | 0.586 ± 0.0076 | 0.436 ± 0.056 | 0.352 ± 0.07 |
| SCC47 HEADNECK | 1.07 ± 0.091 | 1.07 ± 0.019 | 1.12 ± 0.019 | 1.11 ± 0.016 | 1.01 ± 0.092 | 0.996 ± 0.085 | 0.326 ± 0.023 | 0.33 ± 0.0059 | 1.1 ± 0.089 | 1.13 ± 0.13 | 1.13 ± 0.015 | 1.12 ± 0.058 | 1.12 ± 0.039 | 1.03 ± 0.062 | 0.937 ± 0.1 | 0.784 ± 0.1 |
| SCC90 HEADNECK | 1.12 ± 0.06 | 1.12 ± 0.14 | 1.11 ± 0.018 | 1.03 ± 0.036 | 0.912 ± 0.066 | 0.722 ± 0.079 | 0.376 ± 0.014 | 0.288 ± 0.0071 | 1.05 ± 0.046 | 1.02 ± 0.031 | 1.01 ± 0.067 | 1.02 ± 0.059 | 0.813 ± 0.04 | 0.8 ± 0.13 | 1.17 ± 0.15 | 1.15 ± 0.033 |
